Test results from PMC3523701 (Journal of the American Chemical Society, 2012).

System: SRC
Format: binding
Conditions: competitor against photo-probe labeling, Figure S1

Row | SMILES | competition of active site labeling of SRC
1 | Cc1ccc(C(=O)Nc2ccc(CN3CCN(C)CC3)c(C(F)(F)F)c2)cc1C#Cc1cnc2cccnn12 [Ponatinib, reference compound] | able to block active site labeling
2 | CNC(=O)c1cc(Oc2ccc(NC(=O)Nc3cc(C(C)(C)C)nn3-c3ccc4ncccc4c3)c(F)c2)ccn1 [Rebastinib, reference compound] | able to block active site labeling
